Measured values from ChEMBL document CHEMBL1124323, “Phenolic metabolites of clomiphene: [(E,Z)-2-[4-(1,2-diphenyl-2-chlorovinyl)phenoxy]ethyl]diethylamine. Preparation, electrophilicity, and effects in MCF 7 breast cancer cells” (J Med Chem, 1989).

Tests used:
[1] = biological target: T1, Anti-estrogen binding site (AEBS) (Homo sapiens, UniProt Q15125+Q9UBM7); assay: Relative binding affinity for antiestrogen binding site compared to tamoxifen; assay type: protein-complex assay
[2] = biological target: T1, Anti-estrogen binding site (AEBS); assay: Displacement of [3H]tamoxifen from antiestrogen binding site (AEBS); assay type: protein-complex assay
Estrogen receptor [3] = biological target: T2, Estrogen receptor (Homo sapiens, UniProt Q92731+P03372); assay: Displacement of [3H]-estradiol from estrogen receptor (ER); assay type: protein assay
MCF7S [4] = assay: Inhibition of MCF-7 cell proliferation at 5 uM; assay type: functional; details: Homo sapiens
MCF7S [5] = assay: cells; details: Homo sapiens
Estrogen receptor [6] = biological target: T2, Estrogen receptor; assay: Relative binding affinity for estrogen receptor compared to estradiol; assay type: protein assay

T1 sequence (Q15125 whole entry): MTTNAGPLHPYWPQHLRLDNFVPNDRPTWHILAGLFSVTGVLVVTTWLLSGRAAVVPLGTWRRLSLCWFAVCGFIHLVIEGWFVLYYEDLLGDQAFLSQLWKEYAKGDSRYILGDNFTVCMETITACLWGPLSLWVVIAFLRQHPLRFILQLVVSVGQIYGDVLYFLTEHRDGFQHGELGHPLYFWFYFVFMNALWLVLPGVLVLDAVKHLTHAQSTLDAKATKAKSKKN
T1 sequence (Q9UBM7 whole entry): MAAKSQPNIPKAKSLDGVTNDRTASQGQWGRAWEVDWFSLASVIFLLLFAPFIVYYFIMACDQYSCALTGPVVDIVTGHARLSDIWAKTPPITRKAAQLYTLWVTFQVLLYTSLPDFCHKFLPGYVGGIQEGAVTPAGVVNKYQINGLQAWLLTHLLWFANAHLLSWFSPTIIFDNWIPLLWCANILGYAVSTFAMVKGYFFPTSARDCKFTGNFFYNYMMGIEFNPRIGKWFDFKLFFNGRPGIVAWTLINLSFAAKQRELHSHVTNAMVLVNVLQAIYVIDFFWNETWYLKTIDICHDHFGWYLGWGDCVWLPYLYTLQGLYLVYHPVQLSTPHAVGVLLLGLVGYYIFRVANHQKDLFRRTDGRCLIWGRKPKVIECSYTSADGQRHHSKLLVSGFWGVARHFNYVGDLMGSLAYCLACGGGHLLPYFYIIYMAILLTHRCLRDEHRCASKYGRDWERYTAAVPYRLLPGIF

Row | SMILES | Ratio [1] | IC50 [2] | IC50 (Estrogen receptor [3]) | inhibition at 5 µM (MCF7S [4]) | inhibition at 5 µM (MCF7S [5]) | Ratio (Estrogen receptor [6])
1 | CCN(CC)CCOc1ccc(/C(=C(/Cl)c2ccc(O)c(OC)c2)c2ccccc2)cc1 | 38 | 32 nM | 3 µM | 49% | – | –
2 | CCN(CC)CCOc1ccc(/C(=C(/Cl)c2ccc(O)cc2)c2ccccc2)cc1 | – | – | – | – | 57% | –
3 | CCN(CC)CCOc1ccc(C(=C(Cl)c2ccccc2)c2ccccc2)cc1 [CLOMIPHENE] | – | – | – | – | 80% | –
4 | CCN(CC)CCOc1ccc(/C(=C(/Cl)c2ccccc2)c2ccc(O)c(OC)c2)cc1 [3'-METHOXY-4'HYDROXYCLOMIPHENE] | 55 | 22 nM | 0.78 µM | – | 76% | 0.4
